Reference: patent publication US6706754B2, “Reversed amidines and methods of using for treating, preventing, or inhibiting leishmaniasis” (The United States of America as represented by the …, priority 2000, dated 2004)
Converted amounts (≈) assume the structure as drawn. “Also recorded” adds a separate entry of the source. Where a name gives a salt, the structure may show the parent alone.

Legend:
[1] = test system: J774.G8 macrophages; experiment: Macrophage toxicity assay (sulforhodamine B); format: cell-based, mouse; details: Mus musculus, 72 hours, 37° C., macrophage growth inhibited by 50%
Description: The toxicity of the candidate compounds on J774.G8 macrophages was measured using a sulforhodamine B (Molecular Probes, Eugene, Oreg.) based dye assay.
Specifically, a confluent culture of macrophages in a T75 culture flask was harvested by replacing the growth medium (DMEM supplemented with 10% heat inactivated fetal calf serum, 50 units/ml penicillin, and 50 μg/ml streptomycin) with 25 ml of fresh medium and scraping the cells from the bottom of the culture flask. Cell clumps were broken up by gentle pipetting and the cell suspension was transferred to a 50 ml conical centrifuge tube. The cells were then pelleted by centrifugation at 1,000 rpm at 4° C. for 5 minutes. The supernatant was then removed and the cells were resuspended in 15 ml DMEM.
After counting an aliquot of the cell suspension, the macrophages were then diluted to about 1×10^5 cells/ml in DMEM and 180 μl was added to each well of a 96 well tissue culture plate Then 20 μl serial dilutions of a given candidate compound was added. The plate was then placed in a 37° C. humidified 5% CO2 incubator and incubated for 72 hours. Then 50 μl of 50% TCA was added to each well to fix the proteins. The plate was then incubated for at least 1 hour at 4° C.
The liquid contents of the wells were discarded and the wells were washed five times with 200 μl of distilled water. After the final wash the plate was allowed to air dry for 20 minutes. 100 μl of the sulforhodamine B dye (0.4% dye in 1% acetic acid) was added. The plate was then incubated at room temperature for 20 minutes. After discarding the dye solution, the wells were washed five times with 200 μl of 1% acetic acid and then allowed to air dry for 20 minutes. At this time, 50 μl of 10 mM TRIS base was added. After a few minutes of incubation, the absorbance of each well at 490 nm was measured in a SpectraMax Pro microplate reader (Molecular Devices, Sunnyvale, Calif.).
The IC50 values for each candidate compound (the concentration of the agent that inhibited macrophage growth by 50%) were determined for the macrophages with the aid of the program SoftMax Pro (Molecular Devices, Sunnyvale, Calif.) using the following dose response equation: y=((a−d)/1+(x/c)^b)+d, where x=drug concentration; y=absorbance at 490 nm; a=upper asymptote; b=slope; c=IC50; and d=lower asymptote. FIG. 5 provides the graphical data for compound 1DWB667 as an example.

[2] = test system: L. mexicana infected macrophages; experiment: Infected macrophage assay, L. mexicana; format: cell-based; details: for Macrophage IC50 L. mexicana: J774.G8 mouse macrophages, 72 hours, 33° C., number of infected macrophages inhibited by 50%
Description: The susceptibilities of L. mexicania infected macrophages to candidate compounds were determined by the following assay.
(§1) A one week old, confluent culture of J774.G8 mouse macrophages was washed three times with Hank's Balanced Salt Solution (HBSS) without calcium and magnesium (Sigma, St. Louis, Mo.). The J774.G8 mouse macrophages are a continuous cell line that have been cited in the literature as supporting continuous and intracellular growth of various Leishmania sp. and they have been used for drug assays against intracellular parasites, Trypanosoma cruzi and Leishmania sp. See Alcina, A., et al. (1988) Antimicrobial Agents & Chemotherapy. 32(9):1412-5; Mendez, S., et al. (1996) International Journal for Parasitology 26(6):619-22; Hodgkinson, V. H., et al. (1996) Experimental Parasitology 83(1):94-105; and Chang, K. P. (1980) Science 209(4462): 1240-42, which are herein incorporated by reference.
(§2) The macrophages were then incubated at 37° C. in a humidified 5% CO2 incubator for 15 minutes with a Trypsin-EDTA (0.05% Trypsin, 0.53 mM EDTA 4Na) solution (GIBCO BRL, Grand Island, N.Y.). The macrophages were then detached with a cell scraper and suspended by vigorous pipetting. The macrophages were then mixed with a late log phase culture of L. mexicana promastigotes to yield a solution comprising about 5×10^5 macrophages per ml and about 25×10^5 promastigotes per ml in DMEM (pH 7.4) supplemented with 10% heat inactivated fetal calf serum comprising penicillin (50 units/ml) and streptomycin (50 μg/ml).
(§3) The macrophage-parasite mixture was then pipetted into 96-well flat-bottom plates (Costar, Cambridge, Mass.) at 200 μl per well. Infection and attachment of the macrophages was allowed to occur over a period of about 48 hours at 33° C. in a humidified 5% CO2 incubator. The wells were washed three times with HBSS to remove extracellular parasites. Each well was then treated with serial dilutions of a given candidate compound in DMEM.
(§4) The treated plate was incubated for about 72 hours at 33° C. in a humidified 5% CO2 incubator. The macrophages in each well were detached into the DMEM used for the incubation by pipetting and scraping with the tip of a microliter pipettor. 75 μl of the cell suspension was transferred to a cytospin funnel and the cells were centrifuged onto microscope slides at 800 rpm for 5 minutes using a Cytospin centrifuge (Shandon, Pittsburgh, Pa.).
(§5) The slides were air dried and then fixed in methanol for 5 seconds. After the methanol evaporated, the slides were stained with 5% Giemsa stain (Fisher, Suwanee, Ga.) in phosphate buffer comprising 3.1 mM potassium phosphate dibasic and 8.3 mM sodium phosphate monobasic for 45 minutes. After thorough washing with flowing tap water, the slides were air dried and then viewed by oil immersion microscopy to determine percentage of infected cells. A cell was considered to be infected if it comprised one or more amastigote with a visible parasite nucleus and kinetoplast. Counting parasites and counting infected cells provided similar results when determining IC50 values.
(§6) The IC50 values (the concentration of the compound that inhibited the number of infected macrophages by 50%) were determined with the software program TableCurve (SPSS Science, Chicago, Ill.) using the following dose-response equation: y=a+b/(1+(x/c)^d), where x=the drug concentration, y=absorbance at 490 nm, a=upper asymptote, b=slope, c=IC50 and d=lower asymptote. FIG. 3 provides the graphical data obtained for compound 1DWB667 as an example.

[3] = test system: L. donovani axenic amastigote-like parasites; experiment: Axenic amastigote assay (CellTiter 96 tetrazolium dye growth assay); format: cell-based; details: 72 hours, 37° C., pH 5.5, concentration that inhibited parasite growth by 50%
Description: The growth susceptibilities of L. donovani axenic amastigote-like parasites to the candidate compounds were measured in a three day assay using the tetrazolium dye-based CellTiter 96 Aqueous Non-Radioactive Cell Proliferation Assay Kit (Promega, Madison, Wis.) according to Werbovetz, K., et al. (1999) Mol. Biochem. Parasitol. 98:53-65, which is herein incorporated by reference. Pentamidine, at a starting concentration of 100 μM, and serial dilutions thereof were used as controls. Specifically, L. donovani axenic amastigotes, as described by Joshi, M. et al. (1993) Mol. Biochem. Parasitol. 58:345-354, which is herein incorporated by reference, were seeded at 10^6 cells/ml in 96-well flat-bottomed plates (Costar, Cambridge, Mass.) and maintained as axenic amastigote-like forms by serial passage at 37° C. in a humid atmosphere comprising 5% CO2 using a slightly modified potassium-based version of the medium described by Joshi, M. et al. (1993) in the presence or absence of a given candidate compound. The medium comprised 15 mM KCl, […] KH2PO4, 10 mM K2HPO4, 0.5 mM MgSO4, and 24 mM NaHCO3 to give a final potassium concentration of […]. The medium was supplemented with 20% fetal bovine serum and was brought to pH 5.5. The final volume in each well was 60 μl. The plates were incubated at 37° C. for 72 hours, then 12 μl of the aqueous CellTiter solution from the kit (Promega, Madison, Wis.) was added to each well according to the instructions of the manufacturer. The plates were returned to the incubator for about 2 to about 3 hours. Then the absorbance of each well was measured at 490 nm using a SpectraMax Plus microplate reader (Molecular Devices, Sunnyvale, Calif.).
The results for each candidate compound may be found in the FIG. 1. The IC50 values (the concentration of the agent that inhibited parasite growth by 50%) for each candidate compound were determined for axenic amastigotes with the aid of the program SoftMax Pro (Molecular Devices, Sunnyvale, Calif.) using the following dose response equation: y=((a−d)/1+(x/c)^b)+d, wherein x=drug concentration; y=absorbance at 490 nm; a=upper asymptote; b=slope; c=IC50; and d=lower asymptote. FIG. 2 is the graphical data obtained for compound 1DWB667 as an example.

[4] = test system: L. donovani L82; experiment: In vivo assay, murine visceral model of leishmaniasis; set-up: species or system Leishmania donovani; details: BALB/c mice; for % inhibition ± S.E.M.: Table 4
[5] = test system: L. donovani infected macrophages; experiment: Infected macrophage assay, L. donovani; format: cell-based; details: J774.G8 mouse macrophages, 72 hours, 37° C.; number of infected macrophages inhibited by 50%
Excerpt: as §1, §2, §3, §4, §5, §6
The susceptibility of L. donovani infected macrophages to the compounds of the present invention were preformed by a modified protocol for L. mexicana infected macrophages above, wherein all incubations of the parasite infected macrophages were done at 37° C. rather than 33° C. FIG. 4 provides the graphical data for compound 1DWB667 as an example.

For `c1cc(-c2ccc(-c3ccc(N=NC4CCCCC4)cc3)o2)ccc1N=NC1CCCCC1` [DB656, 2,5-Bis[4-(cyclohexylimino)aminophenyl]furan], the melting point was 242 to 243 °C (dec.).

For `N=C(N)c1ccc(OCCCCCOc2ccc(C(=N)N)cc2)cc1` [Pentamidine, reference compound], the IC50 [1] was 9.96 µg/mL (≈ 29.3 µM), the IC50 ([2]; Leishmania mexicana, Macrophage, in Mus musculus, 72 h, read-out: Macrophage IC50 L. mexicana) was greater than 12.5 µg/mL and the “reduction of parasite burden in L. mexicana infected macrophages (in words)” value ([2]; in vitro, cutaneous strain) was “ineffective in the macrophage model; also recorded: did not reduce the parasite burden”. For the same molecule, the IC50 ([3]; Leishmania donovani) was 1.22 µg/mL (≈ 3.58 µM), the “% Inhib. ± SEM” value ([4]; Table 3, 5 mg/kg i.v. × 5 (doses reduced by half, see footnotes a, c)) was 30.5 ± 5.0% and the “% inhibition ± S.E.M.” value ([4]; 4 mg/kg i.v. × 5) was 16.96 ± 3.3%. For the same molecule, the “% Inhib. ± SEM” value ([4]; Table 5, 4 mg/kg i.v. × 5) was 30.6 ± 5.2%.

In the case of “2,5-Bis[2,6-dimethyl-4-(2-pyridylimino)aminophenyl]furan [DB 714]”, the “Macrophage IC50 L. mexicana” value [2] is reported as 0.359 µg/mL, the “Macrophage IC50 L. donovani” value [5] is reported as 0.246 µg/mL and the “Axenic Amastigote IC50 L. donovani” value [3] is reported as 0.290 µg/mL.

`N=C(Nc1ccc(-c2ccc(-c3ccc(NC(=N)c4ccccc4)cc3)o2)cc1)c1ccccc1` (as salt: hydrochloride) [DB613, 2,5-Bis[4-(benzimidoylamino)phenyl]furan] showed a melting point of 312 to 314.5 °C.

With “2,5-Bis[2-methyl-4-(2-quinolylimino)aminophenyl]furan [DB716]” the “Axenic Amastigote IC50 L. donovani” value [3] was “about 10 μg/ml”.

With `N=C(N)Nc1ccc(-c2ccc(-c3ccc(NC(=N)N)cc3)s2)cc1` [DB686, 2,5-Bis(4-guanidinophenyl)thiophene] the “% inhibition ± S.E.M.” value ([4]; 10 mg/kg p.o. × 5) was 34.91 ± 8.04%.

In the case of `C[C@@H]1[C@H](O)[C@@H](C)/C=C/C=C/C=C/C=C/C=C/C=C/C=C/[C@H](O[C@@H]2O[C@H](C)[C@@H](O)[C@H](N)[C@@H]2O)C[C@@H]2O[C@](O)(C[C@@H](O)C[C@@H](O)[C@H](O)CC[C@@H](O)C[C@@H](O)CC(=O)O[C@H]1C)C[C@H](O)[C@H]2C(=O)O` [Amphotericin B, reference compound], the “Macrophage IC50 L. mexicana” value [2] is reported as 0.032 µg/mL, the “Macrophage IC50 L. donovani” value [5] is reported as 0.024 µg/mL and the “Axenic Amastigote IC50 L. donovani” value [3] is reported as 0.342 µg/mL.
